ChEMBL document CHEMBL2021922, “Identification of a Potent and Selective Cannabinoid CB1 Receptor Antagonist from Auxarthron reticulatum” (ACS Med Chem Lett, 2011)
The source made the active and inactive calls. No cut-off for these calls is given here.

What was measured:
Cannabinoid receptor 1 = Cannabinoid receptor 1 (Homo sapiens, UniProt P21554); experiment: Displacement of [3H]CP55940 from human recombinant CB1 receptor expressed in CHO cells after 2 hrs by liquid scintillation counting; format: cell-based
Sequence of Cannabinoid receptor 1 (P21554 whole entry): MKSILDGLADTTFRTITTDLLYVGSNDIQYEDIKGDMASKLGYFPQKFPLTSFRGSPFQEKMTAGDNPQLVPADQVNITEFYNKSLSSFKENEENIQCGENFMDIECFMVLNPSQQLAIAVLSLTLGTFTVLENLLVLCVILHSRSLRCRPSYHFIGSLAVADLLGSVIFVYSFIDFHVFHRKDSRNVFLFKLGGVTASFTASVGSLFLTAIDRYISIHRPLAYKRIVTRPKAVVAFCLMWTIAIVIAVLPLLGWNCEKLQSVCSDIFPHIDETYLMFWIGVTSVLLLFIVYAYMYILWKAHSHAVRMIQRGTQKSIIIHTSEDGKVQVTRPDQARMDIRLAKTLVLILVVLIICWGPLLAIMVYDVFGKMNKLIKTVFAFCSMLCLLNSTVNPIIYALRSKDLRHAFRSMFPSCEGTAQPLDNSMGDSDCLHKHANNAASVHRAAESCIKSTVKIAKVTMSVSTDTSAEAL

[1] = target: Cannabinoid receptor 2 (Homo sapiens) (UniProt P34972); experiment: Displacement of [3H]CP55940 from human recombinant CB2 receptor expressed in CHO cells at 10 uM after 2 hrs by liquid scintillation counting; format: cell-based
Sequence of Cannabinoid receptor 2 (Homo sapiens) (P34972 whole entry): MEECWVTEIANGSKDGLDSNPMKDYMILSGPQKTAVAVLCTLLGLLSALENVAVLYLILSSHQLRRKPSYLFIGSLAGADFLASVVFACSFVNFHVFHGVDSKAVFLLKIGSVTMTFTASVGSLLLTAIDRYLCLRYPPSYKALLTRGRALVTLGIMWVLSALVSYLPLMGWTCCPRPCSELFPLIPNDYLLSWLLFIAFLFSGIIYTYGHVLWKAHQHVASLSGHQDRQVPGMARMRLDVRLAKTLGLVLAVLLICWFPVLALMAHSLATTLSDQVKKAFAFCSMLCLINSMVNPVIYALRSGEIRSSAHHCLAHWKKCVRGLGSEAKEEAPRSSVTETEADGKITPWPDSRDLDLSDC

Ki (Cannabinoid receptor 1): 178 nM | Activity [1]: inactive
Compound: C=CC(C)(C)[C@@]12C[C@H]3C(=O)N4[C@@H](C[C@@]5(C(C)(C)C=C)c6ccccc6N[C@@H]45)C(=O)N3[C@@H]1Nc1ccccc12 [AMAUROMINE]
